Tested on: Balb/c mice
Experiment: Light/dark box test in mice (anxiolytic effect)
Assay type: in vivo
Details: for anxiolytic effect in the light/dark box test: 30 mg/kg, oral administration; for minimal effective dose: Mus musculus, 1 h, minimum dose significantly prolonging time spent in the light box vs vehicle, oral, one hour prior to test
Experimental: The light/dark box test in mice was carried out according to a modified method of Belzung C., Misslin R., Vogel E. et al. (Reference; Behavioural effects of the benzodiazepine receptor partial agonist RO16-6028 in mice, Psychopharmacology, 97, 388-391, 1989). The test apparatus used was a light/dark box comprising a covered black acrylic box (dark box; 15×10×20 cm), an uncovered white acrylic box (light box; 15×20×20 cm) and a black acrylic tunnel (10×7×4.5 cm) which connects dark box and light box and enables a mouse to freely move back and forth between the dark box and light box. In this test apparatus, however, a transparent acrylic polymer was used for the front side (20×20 cm) and back side (20×20 cm) of the light box to allow observation of the behavior. After setting illumination so that the light intensity of the floor of the light box was 150 Lux, 5-week-old male Balb/c mice (purchased from Nihon Charles River) were introduced into the dark box at the beginning of the test. For the test, the tested compound was suspended in 5% dimethylsulfoxide, 5% Cremopor EL and 90% physiological saline and orally administered to the test animals one hour prior to the start of the test.
The time spent in the light box was measured as an index of the anxiolytic effect, with “spend in the light box” defined as the state in which all limbs of the mice were on the floor of the light box. […] The statistical significance between the vehicle-treated group and the test compound-treated groups was analyzed by one way analysis of variance followed by Dunnett multiple comparison when multiple doses were set for the same test, and by the Mann-Whitney U test when only one dose was set.

Row | SMILES | anxiolytic effect in the light/dark box test | minimal effective dose
1 | COCc1cc(OC)c(-c2csc3c(N(CC4CC4)C4CCOCC4)c(OC)nn23)c(OC)c1 [Example 9, N-(Cyclopropylmethyl)-3-[2,6-dimethoxy-4-(methoxymethyl)phenyl]-6-methoxy-N-(tetrahydro-2H-pyran-4-yl)pyrazolo[5,1-b][1,3]thiazole-7-amine] | statistically significant effects | 30 mg/kg
2 | CCCN(c1c(OC)nn2c(-c3c(Cl)cc(COC)cc3OC)csc12)C1CCOCC1 [Example 13, 3-[2-Chloro-6-methoxy-4-(methoxymethyl)phenyl]-6-methoxy-N-propyl-N-(tetrahydro-2H-pyran-4-yl)pyrazolo[5,1-b][1,3]thiazole-7-amine] | statistically significant effects | 30 mg/kg
3 | CCCN(c1c(OC)nn2c(-c3c(OC)cc(COC)cc3OC)csc12)C1CCOCC1 [Example 10, 3-[2,6-Dimethoxy-4-(methoxymethyl)phenyl]-6-methoxy-N-propyl-N-(tetrahydro-2H-pyran-4-yl)pyrazolo[5,1-b][1,3]thiazole-7-amine] | statistically significant effects | 30 mg/kg
4 | CCCCN(c1c(OC)nn2c(-c3c(OC)cc(COCC)cc3OC)csc12)C1CCOCC1 [Example 2, N-Butyl-3-[4-(ethoxymethyl)-2,6-dimethoxyphenyl]-6-methoxy-N-(tetrahydro-2H-pyran-4-yl)pyrazolo[5,1-b][1,3]thiazole-7-amine] | statistically significant effects | 30 mg/kg
5 | CCCCN(c1c(OC)nn2c(-c3c(OC)cc(COC)cc3OC)csc12)C1CCOCC1 [Example 1, N-Butyl-3-[2,6-dimethoxy-4-(methoxymethyl)phenyl]-6-methoxy-N-(tetrahydro-2H-pyran-4-yl)pyrazolo[5,1-b][1,3]thiazole-7-amine] | statistically significant effects | 30 mg/kg

— patent publication US8431603B2, “3-phenylpyrazolo[5,1-b]thiazole compounds” (Eisai R&D Management Co., Ltd., priority 2008, dated 2013)
